# In patent US10682320B2, “Method for inhibiting osteoclast development” (West Virginia University, priority 2012, dated 2020):
# What was measured:
# STIM I = target: T1, STIM I (Homo sapiens, UniProt Q13586); assay: STIM I puncta formation in HEK293 cells transfected with YFP-STIM I; assay type: cell-based; settings: 2 μM thapsigargin, 16 minute period
# T1 construct: expressed in transfected cells; host or cells: HEK293
# Description: HEK293 cells, maintained in DMEM with 10% FBS, were transfected with YFP-STIM I using Lipofectamine 2000 (Invitrogen, Carlsbad, Calif.) for 5 h (37° C.; 5% CO2) followed by a 24-h recovery. Cells were placed in 140 mM NaCl, 5 mM KCl, 1 mM MgCl2, 10 mM glucose, 15 mM HEPES, 0.1% BSA, 2 mM CaCl2 and analyzed by confocal microscopy for STIM I puncta formation using a Nikon phase-fluorescence microscope with CCD detectors (Diagnostic instruments, Sterling Heights, Mich.). Phase or transmitted light microscopy used 10-40× objectives and red, green, and blue filters to assemble color images. Fluorescence images used 1.4 NA 40× oil objectives. Red fluorescence used excitation at 530-560 nm, a 575 nm dichroic minor, and 580-650 nm emission filter. Transfection data were analyzed using Nikon NIS Elements Imaging Software. The effect of DCPA on STIM I/Orai I association was determined in wild-type HEK293 cells transfected with STIM I-YFP as described in Wang Y, Deng X, Zhou Y, Hendron E, Mancarelia S, Ritchie M F, Tang X D, Baba Y, Kurosaki T, Mori Y, Soboloff J, Gill DL, “STIM protein coupling in the activation of Orai channels”, Proc Natl Acad Sci USA, Vol. 106, pages 7391-7396, 2009. Experiments were performed on a Leica DMI 6000B fluorescence microscope controlled by Slidebook Software (Intelligent Imaging Innovations, Denver, Colo.). […]
# CRAC channel = CRAC channel (Homo sapiens, UniProt Q13586); assay: CRAC channel activity by Fura-2 fluorescence in Jurkat cells after thapsigargin; assay type: cell-based; parameters: endogenous in cells; host or cells: Jurkat cells
# CRAC channel, sequence (Q13586 23-685): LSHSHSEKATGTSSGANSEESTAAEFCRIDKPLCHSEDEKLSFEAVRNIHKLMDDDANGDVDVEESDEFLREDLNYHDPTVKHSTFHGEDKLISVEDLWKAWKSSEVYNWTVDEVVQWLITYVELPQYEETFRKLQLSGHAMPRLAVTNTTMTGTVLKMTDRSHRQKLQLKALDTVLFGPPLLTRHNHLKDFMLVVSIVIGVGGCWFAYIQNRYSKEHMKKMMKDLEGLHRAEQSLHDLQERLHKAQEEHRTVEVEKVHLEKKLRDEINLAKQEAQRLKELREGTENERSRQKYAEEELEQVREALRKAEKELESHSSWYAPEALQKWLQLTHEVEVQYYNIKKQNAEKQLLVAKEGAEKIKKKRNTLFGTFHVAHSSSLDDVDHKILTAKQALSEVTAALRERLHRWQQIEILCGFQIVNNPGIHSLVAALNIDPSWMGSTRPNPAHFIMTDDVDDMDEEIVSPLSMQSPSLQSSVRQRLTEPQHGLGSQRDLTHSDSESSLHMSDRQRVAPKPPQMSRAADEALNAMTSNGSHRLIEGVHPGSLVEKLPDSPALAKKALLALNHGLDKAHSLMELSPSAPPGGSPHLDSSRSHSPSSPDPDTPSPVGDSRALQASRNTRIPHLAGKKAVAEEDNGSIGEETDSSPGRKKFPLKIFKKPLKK
# Description: Ratiometric imaging of intracellular Ca^2+ using fura-2 was as described (see, Zhou et al., 2009 above). Briefly, cells on coverslips, in cation safe solution (107 mM NaCl, 7.2 mM KCl, 1.2 mM MgCl2, 11.5 mM glucose, 20 mM HEPES-NaOH, pH 7.2) were loaded with fura-2 acetoxymethyl ester (2 μM) for 30 min at 24° C. Cells were washed and fluorescent probe was allowed to de-esterify for 30 min. From signal remaining after saponin permeabilization, ˜85% of the dye was confined to the cytoplasm (see, Ma H-T, Patterson R L. van Rossum D B. Birnbaumer L, Mikoshiba K, Gill D L, “Requirement of the inositol trisphosphate receptor for activation of store-operated Ca^2+ channels”, Science, Vol. 287, pages 1647-1651, 2000). Ca^2+ measurements were made using a Leica DMI 6000B fluorescence microscope controlled by Slidebook Software. Fluorescence emission at 505 nm was monitored while alternating between 340 and 380 nm excitation wavelengths at a frequency of 0.67 Hz; intracellular Ca^2+ measurements are shown as 340/380 nm emission ratios obtained from groups (35-45) of single cells. Measurements shown are representative a minimum of three independent experiments.
# N-(3,4-dibromophenyl)propanamide]. Jurkat cells, a T cell line that is very sensitive to DCPA, was cultured with the indicated compounds, DCPA, DBPA, and ethanol (EtOH). CRAC channel activity was monitored using Fura-2 fluorescence using standard known techniques. Cells were incubated in each composition at 100 uM for 10 minutes prior to addition of the SERCA inhibitor thapsigargin (Tg) to induce SOCe. Decreased CRAC channel activity is clearly evident with DCPA and DBPA.
# Jurkat cells, a T cell line that is very sensitive to DCPA, was cultured with the indicated compositions of the present invention, namely, DNI, NM Propanil, and DNMNI. CRAC channel activity was monitored using Fura-2 fluorescence using standard known techniques. Cells were incubated in each composition at 100 uM for 10 minutes prior to addition of the SERCA inhibitor thapsigargin (Tg) to induce SOCe. Decreased CRAC channel activity is clearly evident with each of the compositions of the present invention. […] Each of the compositions of this invention achieve the results achieved with the known DCPA but without the burden of toxicity of DCPA that would accompany further metabolism of DCPA.
# T1 sequence (Q13586 23-685): as above
smiles,measurement,setting,value
"CCC(=O)Nc1ccc(Cl)c(Cl)c1 [DCPA, N-(3,4-dichlorophenyl)propanamide]",STIM I puncta formation after store depletion,STIM I,dramatically inhibited
same,effect on ER Ca2+ content,CRAC channel,no effect
same,store-operated Ca2+ channel function,CRAC channel,blocks
same,CRAC channel activity,"CRAC channel; 100 uM, 10 minutes before thapsigargin",Decreased
